# In patent publication US20260130933A1, “PHARMACEUTICAL COMPOSITION FOR PREVENTION OR TREATMENT OF NEPHROPATHY AND/OR DIABETES MELLITUS, COMPRISING ENAVOGLIFLOZIN” (DAEWOONG PHARMACEUTICAL CO., LTD., priority 2022, published 2026):
# Assay: Example 2: phase 3 trial, enavogliflozin 0.3 mg vs dapagliflozin 10 mg once a day for 24 weeks added to metformin in patients with type 2 diabetes (same efficacy, exploratory and safety endpoints)
# Assay type: in vivo, human
# Details: for fasting Total cholesterol, Mean (SD) / fasting Total cholesterol, Median / Change from baseline in Total cholesterol, ANCOVA LS mean (SE) / Change from baseline in Total cholesterol, Mean (SD) / Change from baseline in total cholesterol, Median: modified per-protocol set 1; for fasting Total cholesterol, Mean (SD) / fasting Total cholesterol, Median / Change from baseline in FPG, ANCOVA LS mean (SE) / Change from baseline in FPG, Mean (SD) / Change from baseline in FPG, Median / Change from baseline in HbA1c, ANCOVA LS mean (SE) / Change from baseline in HbA1c, Mean (SD) / Change from baseline in HbA1c, Median / Change from baseline in body weight, ANCOVA LS mean (SE) / Change from baseline in body weight, Mean (SD) / Change from baseline in body weight, Median / Change from baseline in fasting c-peptide, ANCOVA LS mean (SE) / Change from baseline in fasting c-peptide, Mean (SD) / Change from baseline in fasting c-peptide, Median / FPG, Mean (SD) / FPG, Median / HbA1c, Mean (SD) / HbA1c, Median / Subjects achieving HbA1c target of <6.5%, (%) / Subjects achieving therapeutic glycemic response, (%) / body weight, Mean (SD) / body weight, Median / fasting c-peptide, Mean (SD) / fasting c-peptide, Median / Change from baseline in Total cholesterol, ANCOVA LS mean (SE) / Change from baseline in Total cholesterol, Mean (SD) / Change from baseline in total cholesterol, Median: enavogliflozin 0.3 mg, dapagliflozin 10 mg; for Change from baseline in FPG, ANCOVA LS mean (SE) / Change from baseline in FPG, Mean (SD) / Change from baseline in FPG, Median / Change from baseline in HbA1c, ANCOVA LS mean (SE) / Change from baseline in HbA1c, Mean (SD) / Change from baseline in HbA1c, Median / Change from baseline in body weight, ANCOVA LS mean (SE) / Change from baseline in body weight, Mean (SD) / Change from baseline in body weight, Median / Change from baseline in fasting c-peptide, ANCOVA LS mean (SE) / Change from baseline in fasting c-peptide, Mean (SD) / Change from baseline in fasting c-peptide, Median / FPG, Mean (SD) / FPG, Median / HbA1c, Mean (SD) / HbA1c, Median / Subjects achieving HbA1c target of <6.5%, (%) / Subjects achieving therapeutic glycemic response, (%) / body weight, Mean (SD) / body weight, Median / fasting c-peptide, Mean (SD) / fasting c-peptide, Median: per-protocol set
# Protocol: Subjects who met the inclusion/exclusion criteria were administered a placebo of the clinical trial drug under single-blind (subject blinding) conditions during a 2-week run-in period while continuing to receive metformin. […] The randomized subjects were administered two tablets of the clinical trial drug for each administration group once a day, and then visited the institution at weeks 6, 12, 18, and 24 during the 24-week administration period to conduct efficacy and safety evaluations.
# • 1. Change in HbA1c at week 24 after administration of clinical trial drug compared to Visit 2 (randomization)
# • 1. Change in HbA1c at each time point of weeks 6, 12, and 18 after administration of clinical trial drug compared to Visit 2 (randomization) • 2. Change in FPG at each time point of weeks 6, 12, 18, and 24 after administration of clinical trial drug compared to Visit 2 (randomization) • 3. Proportion of subjects achieving HbA1c<7% at each time point of weeks 6, 12, 18, and 24 after administration of clinical trial drug • 4. Proportion of subjects achieving HbA1c<6.5% at each time point of weeks 6, 12, 18, and 24 after administration of clinical trial drug • 5. Proportion of subjects achieving therapeutic response (HbA1c change (HbA1c at Visit 2-HbA1c at each evaluation time point)>0.5% or HbA1c<7% at each evaluation time point compared to Visit 2 (randomization)) at each time point of weeks 6, 12, 18 and 24 after administration of clinical trial drug
# • 1. Change in fasting c-peptide at each time point of weeks 6, 12, 18, and 24 after administration of clinical trial drug compared to Visit 2 (randomization) • 2. Change in body weight at each time point of weeks 6, 12, 18, and 24 after administration of clinical trial drug compared to Visit 2 (randomization) • 3. Change in fasting lipid concentration (total cholesterol, LDL-C, HDL-C, and triglycerides) at each time point of weeks 6, 12, 18, and 24 after administration of clinical trial drug compared to Visit 2 (randomization) • 4. Changes in systolic or diastolic blood pressure at each time point of weeks 6, 12, 18, and 24 after administration of clinical trial drug compared to Visit 2 (randomization) • 5. Changes in β-cell function and insulin resistance measured by HOMA-β and HOMA-IR at each time point of weeks 6, 12, 18, and 24 after administration of clinical trial drug compared to Visit 2 (randomization) • 6. Changes in renal function-related indicators (UACR, UGCR) measured by UACR at each time point of weeks 6, 12, 18, and 24 after administration of clinical trial drug compared to Visit 2 (randomization) • 7. Changes in obesity-related indicators (adiponectin, leptin) at each time point of weeks 6, 12, 18, and 24 after administration of clinical trial drug compared to Visit 2 (randomization)
# [1] = week 24, listed as dapagliflozin
smiles,measurement,setting,value
"CCOc1ccc(Cc2cc([C@@H]3O[C@H](CO)[C@@H](O)[C@H](O)[C@H]3O)ccc2Cl)cc1 [Dapagliflozin, reference compound]","fasting Total cholesterol, Mean (SD)",week 12,143.19(28.59) mg/dL
same,"fasting Total cholesterol, Median",week 12,138.00 mg/dL
same,"Change from baseline in FPG, ANCOVA LS mean (SE)",week 12,-30.11 mg/dL
same,"Change from baseline in FPG, Mean (SD)",week 12,-31.89 mg/dL
same,"Change from baseline in FPG, Median",week 12,-23.50 mg/dL
same,"Change from baseline in HbA1c, ANCOVA LS mean (SE)",week 12,−0.79 % p
same,"Change from baseline in HbA1c, Mean (SD)",week 12,−0.74 % p
same,"Change from baseline in HbA1c, Median",week 12,−0.66 % p
same,"Change from baseline in body weight, ANCOVA LS mean (SE)",week 12,−2.63(0.23) kg
same,"Change from baseline in body weight, Mean (SD)",week 12,−2.61(1.66) kg
same,"Change from baseline in body weight, Median",week 12,-2.55 kg
same,"Change from baseline in fasting c-peptide, ANCOVA LS mean (SE)",week 12,−0.09(0.02) ng/mL
same,"Change from baseline in fasting c-peptide, Mean (SD)",week 12,−0.08(0.18) ng/mL
same,"Change from baseline in fasting c-peptide, Median",week 12,-0.10 ng/mL
same,"FPG, Mean (SD)",week 12,117.78 mg/dL
same,"FPG, Median",week 12,116.50 mg/dL
same,"HbA1c, Mean (SD)",week 12,6.94%
same,"HbA1c, Median",week 12,6.83%
same,"Subjects achieving HbA1c target of <6.5%, (%)",week 12,(26.14) %
same,"Subjects achieving therapeutic glycemic response, (%)",week 12,(79.55) %
same,"body weight, Mean (SD)",week 12,68.19(11.65) kg
same,"body weight, Median",week 12,66.90 kg
same,"fasting c-peptide, Mean (SD)",week 12,0.66(0.23) ng/mL
same,"fasting c-peptide, Median",week 12,0.65 ng/mL
same,"FPG change from baseline, LS mean (SE)",week 18,−31.13(1.63) mg/dL
same,"HOMA-IR change from baseline, LS mean (SE)",week 18,−1.47(0.12)
same,"HOMA-β change from baseline, LS mean (SE)",week 18,13.49(3.08)
same,"HbA1c change from baseline, LS mean (SE)",week 18,−0.70(0.06) % p
same,"LDL-C change from baseline, LS mean (SE)",week 18,2.58(1.89) mg/dL
same,Subjects achieving HbA1c target of <7%,week 18,(57.47) %
same,Subjects achieving HbA1c<6.5%,week 18,25.29%
same,Subjects achieving therapeutic response (HbA1c change >0.5% or HbA1c<7%),week 18,73.56%
same,"UACR change from baseline, LS mean (SE)",week 18,−12.95(5.11) g/kg
same,"diastolic blood pressure change from baseline, LS mean (SE)",week 18,−4.10(0.81) mmHg
same,"fasting c-peptide change from baseline, LS mean (SE)",week 18,−0.06(0.19) ng/ml
same,"leptin change from baseline, LS mean (SE)",week 18,−1.23(0.53) ng/mL
same,Subjects achieving HbA1c target of <7%,"week 18, listed as dapagliflozin",57.47%
same,"Change from baseline in Total cholesterol, ANCOVA LS mean (SE)",week 18,9.57(2.20) mg/dL
same,"Change from baseline in Total cholesterol, Mean (SD)",week 18,10.18(22.74) mg/dL
same,"Change from baseline in total cholesterol, Median",week 18,9.00 mg/dL
same,"fasting Total cholesterol, Mean (SD)",week 18,148.48(30.10) mg/dL
same,"fasting Total cholesterol, Median",week 18,151.50 mg/dL
same,"Change from baseline in FPG, ANCOVA LS mean (SE)",week 18,-31.13 mg/dL
same,"Change from baseline in FPG, Mean (SD)",week 18,-32.55 mg/dL
same,"Change from baseline in FPG, Median",week 18,-26.00 mg/dL
same,"Change from baseline in HbA1c, ANCOVA LS mean (SE)",week 18,−0.70 % p
same,"Change from baseline in HbA1c, Mean (SD)",week 18,−0.66 % p
same,"Change from baseline in HbA1c, Median",week 18,−0.61 % p
same,"Change from baseline in body weight, ANCOVA LS mean (SE)",week 18,−3.16(0.26) kg
same,"Change from baseline in body weight, Mean (SD)",week 18,−3.19(1.93) kg
same,"Change from baseline in body weight, Median",week 18,-3.00 kg
same,"Change from baseline in fasting c-peptide, ANCOVA LS mean (SE)",week 18,−0.06(0.02) ng/mL
same,"Change from baseline in fasting c-peptide, Mean (SD)",week 18,−0.06(0.19) ng/mL
same,"Change from baseline in fasting c-peptide, Median",week 18,-0.03 ng/mL
same,"FPG, Mean (SD)",week 18,116.53 mg/dL
same,"FPG, Median",week 18,115.00 mg/dL
same,"HbA1c, Mean (SD)",week 18,7.02%
same,"HbA1c, Median",week 18,6.90%
same,"Subjects achieving HbA1c target of <6.5%, (%)",week 18,(25.29) %
same,"Subjects achieving therapeutic glycemic response, (%)",week 18,(73.56) %
same,"body weight, Mean (SD)",week 18,67.54(11.96) kg
same,"body weight, Median",week 18,67.00 kg
same,"fasting c-peptide, Mean (SD)",week 18,0.69(0.24) ng/mL
same,"fasting c-peptide, Median",week 18,0.66 ng/mL
same,"FPG change from baseline, LS mean (SE)",week 24,−29.14(1.82) mg/dL
same,"HOMA-IR change from baseline, LS mean (SE)",week 24,−1.31(0.14)
same,"HOMA-β change from baseline, LS mean (SE)",week 24,11.93(3.25)
same,"HbA1c change from baseline, LS mean (SE)",week 24,−0.75 % p
same,"HbA1c change from baseline, Mean (SD)",week 24,−0.71 % p
same,"HbA1c, Mean",week 24,6.97%
same,"LDL-C change from baseline, LS mean (SE)",week 24,0.93(1.98) mg/dL
same,Subjects achieving HbA1c target of <7%,week 24,(62.22) %
same,Subjects achieving HbA1c<6.5%,week 24,27.78%
same,Subjects achieving therapeutic response (HbA1c change >0.5% or HbA1c<7%),week 24,75.56%
same,"UACR change from baseline, LS mean (SE)",week 24,−17.37(3.48) g/kg
same,"UGCR change from baseline, LS mean (SE)",week 24,44.94(2.18) mg/mg
same,"diastolic blood pressure change from baseline, LS mean (SE)",week 24,−4.26(0.67) mmHg
same,"fasting c-peptide change from baseline, LS mean (SE)",week 24,−0.04(0.26) ng/ml
same,"leptin change from baseline, LS mean (SE)",week 24,−1.28(0.53) ng/mL
same,"HbA1c change from baseline, LS mean (SE)",[1],−0.75(0.06) % p
same,"HbA1c change from baseline, Mean (SD)",[1],−0.71(0.76) % p
same,Subjects achieving HbA1c target of <7%,[1],62.22%
same,"Change from baseline in Total cholesterol, ANCOVA LS mean (SE)",week 24,6.74(2.30) mg/dL
same,"Change from baseline in Total cholesterol, Mean (SD)",week 24,9.15(22.59) mg/dL
same,"Change from baseline in total cholesterol, Median",week 24,10.00 mg/dL
same,"fasting Total cholesterol, Mean (SD)",week 24,147.02(27.55) mg/dL
same,"fasting Total cholesterol, Median",week 24,145.00 mg/dL
same,"Change from baseline in FPG, ANCOVA LS mean (SE)",week 24,-29.14 mg/dL
same,"Change from baseline in FPG, Mean (SD)",week 24,-31.42 mg/dL
same,"Change from baseline in FPG, Median",week 24,-24.00 mg/dL
same,"Change from baseline in body weight, ANCOVA LS mean (SE)",week 24,−3.58(0.34) kg
same,"Change from baseline in body weight, Mean (SD)",week 24,−3.60(2.14) kg
same,"Change from baseline in body weight, Median",week 24,-3.40 kg
same,"Change from baseline in fasting c-peptide, ANCOVA LS mean (SE)",week 24,−0.04(0.02) ng/mL
same,"Change from baseline in fasting c-peptide, Mean (SD)",week 24,−0.04(0.26) ng/mL
same,"Change from baseline in fasting c-peptide, Median",week 24,-0.07 ng/mL
same,"FPG, Mean (SD)",week 24,117.91 mg/dL
same,"FPG, Median",week 24,116.50 mg/dL
same,"Subjects achieving HbA1c target of <6.5%, (%)",week 24,(27.78) %
same,"Subjects achieving therapeutic glycemic response, (%)",week 24,(75.56) %
same,"body weight, Mean (SD)",week 24,66.92(11.89) kg
same,"body weight, Median",week 24,66.05 kg
same,"fasting c-peptide, Mean (SD)",week 24,0.70(0.30) ng/mL
same,"fasting c-peptide, Median",week 24,0.66 ng/mL
